Laboratory results published in patent US20100041603A1, “Method of Promoting Wound Healing” (Corthera, Inc., priority 2008, published 2010).
Entries after “also recorded” stand apart in the source; their conditions may differ.

Experiments:
[1] = tested on: 20×6 mm incisional wounds on the back; assay: Porcine skin wound study (incisional wounds, six weeks); format: in vivo, juvenile pigs; settings: dose range 10-960 μg/kg/day
[2] = tested on: 20×6 mm incisional wounds on the back; assay: as above; format: in vivo, juvenile pigs
From the text: Overview of the Animal Study. In selecting the appropriate animal for this study, a pig was selected because of the anatomical similarities between pig skin and human skin. In fact, pig wound healing has been used in numerous studies to simulate human skin (Sullivan et al., Wound Repair Regen. 9: 66-76, 2001).
Design of Study. In this study, juvenile pigs were oriented with twelve wound sites per animal—20×6 mm incisional wounds on the back—over the course of a six week study (see FIG. 2). Systemic relaxin was delivered via mini-pumps to achieve 20 ng/mL serum concentrations. Topical formulations were prepared by Dow Pharma, and consisted of propylene glycol and ethanol, which contributed to good long term stability of the therapeutic agent. Dosages consisting of placebo, 0.5 mg/mL (low dose), and 2.5 mg/mL (high dose) were prepared. The goals of the study were to assess the safety of topical relaxin on wound healing and to determine the efficacy of relaxin as a treatment for wound healing and/or scar formation. During the first week, irrigation was performed once daily. During weeks 2-3, topical formulation was applied twice daily, and during weeks […], topical formulation was applied once daily.
Design of Drug The study drug was relaxin (produced by recombinant technology). Recombinant relaxin is identical to the native human hormone H2 relaxin, produced using a recombinant single chain process. The active test article may be aseptically diluted to the desired concentration with the acetate diluent (20 mM sodium acetate, pH 5.0).
Study Procedures. Referring to FIG. 3 which depicts the back of a pig with incisions according to the experimental design described herein at the completion of six weeks, the wound in Section 3 was irrigated with relaxin construct during the first week, and subsequently treated with high dose topical relaxin formulation during weeks 2-6 as described above. Sections 4, 5, and 6 received no irrigation during week 1. Section 4 was treated with placebo. Section 5 was treated with low dose topical formulation, and Section 6 was treated with high dose topical formulation.
Cosmetic appearance of skin. Visual rankings of wound pictures were conducted by neutral observers who evaluated scabs during early wound healing (days 5-7) and scars at the end of the study (see FIG. 4). […] The results of this visual wound assessment determined that 89% of the time a relaxin treatment group was selected in the top three. Only 11% of the time, a group not treated with relaxin was selected in the top three.
A cosmetic score was also determined by a professional dermatologist at weeks 2, 4, and 6. The cosmetic score has five components: (1) color—matching with surrounding skin; (2) texture—no hardness; (3) distortion—no distortion of nearby skin; (4) contour—flush with surrounding skin; (5) global—no hypertrophy or keloid formation. During this dermatological assessment, evaluation at time 2 weeks was obscured by scabs, so the data for cosmetic scores was collected from evaluation at weeks 4 and 6 (see FIG. 5). […] In the bottom profile, the scar is visible.
Histological evaluation. A professional histopathologist evaluated the pathology of the treatments for such indications as granulation, inflammation, and necrosis. In judging granulation tissue, it is considered that early response to wound includes invasion of the site by fibroblasts, inflammatory cells, and new blood vessels. Over time, this resolves to more normal tissue as the site heals. Chronic inflammation characterized by the presence of macrophages, giant cells, lymphocytes, and PMNs indicated adverse reaction. Minor factors such as keratosis (formation of keratin layer outside the epidermis) and acanthosis (thickening of the epidermal layer) are also considered. […]

wounded sites = settings: systemic relaxin administration in rats; cited from earlier work
[3] = Canine gingiva study: RLX migration and degradation after gingival injection (SELDI-TOF MS); format: in vivo, dog; settings: for RLX detection in gingiva away from the site of injection: 1 hr time point; for concentration of H2 RLX detected in treated dog gingiva: site of injection
Protocol: The aim of this study was to determine the rate of RLX migration and extent of degradation after gingival injections. […] Employing a dog model, RLX was administered and tissue punch biopsies were collected at the site of injection and 0.5, 1 and 2 cm from the site of injection. Tissue was collected at several time points including 1, 2 and 4 hrs after injection. Protein was extracted from the gingival biopsies and analysed via ProteinChip technology (Surface Enhanced Laser Desorption/Ionization Time-of-Flight Mass Spectrometry, SELDI-TOF MS), which combines two well-established methods of solid phase chromatography and TOF-MS into an integrated platform. ProteinChip arrays were coated with anti-H2 RLX Ab, allowing the specific capture of RLX and associated breakdown/modified products.
Design of Drug. Gingival injections were administered (25 μg H2 RLX/100 μl, 41 μM) and tissue was collected at several positions including the site of injection and 0.5, 1 and 2 cm from the site of injection. Tissue was collected 1, 2 and 3 hrs after injection.
a) Protein Extraction and Quantitation. Frozen gingival biopsies were homogenized in extraction buffer (10 μl/mg tissue) containing 10 mM Tris-HCl, 10 mM NaCl, 0.1% TFA and protease inhibitor (complete mini, Roche). The extract was centrifuged (6000×g) for 10 min and the supernatant was collected, aliquoted and stored at −80° C. Total protein concentration was determined using the Bradford assay. Protein concentrations ranged from 1.4 mg/ml to 2.8 mg/ml, all samples were standardized to 1.4 mg/ml in extraction buffer.
b) SELDI-TOF MS analysis—Analysis of RLX treated gingiva on PG20 arrays. Anti-H2 RLX Ab ([…]/0.25 mg/ml; Genentech) or control IgG (Ciphergen Biosystems) was applied to each spot of a PS20 array which had been pre-coated with Protein G (Ciphergen Biosystems). After antibody binding, the chip was washed once with PBS/0.5% Triton X-100 for 5 min with agitation (5 μl per spot), followed by two PBS washes. Dog gingiva extracts (3 μl/1.4 mg/ml) were applied to each spot and incubated for 4 hrs. Non-specifically bound proteins were removed by sequentially washing with PBS/0.5% Triton X-100, PBS and 1 mM HEPES, pH 7.2. The chips were air dried and 1 μl of 50% saturated sinapinic acid in 50% (v/v) acetonitrile, 0.5% trifluoroacetic acid was applied onto each spot twice, arrays were air dried between each application. Chips were subsequently analysed by SELDI-TOF MS (Ciphergen Biosystems) using the following settings, laser 220 and sensitivity 9.
c) Generation of H2 RLX Std Curve on PG20 arrays. H2 RLX (batch number 11835-89) was spiked into control dog gingiva (1.4 mg/ml) at different concentrations, including 100 nM, 50 nM, 12.5 nM, 6.25 nM, 3.125 nM and 1.56 nM and analysed as described above.
Findings. In order to quantitate the levels of RLX in the treated gingiva samples a H2 RLX standard curve was generated. The linear dynamic range was determined to be two orders of magnitude with a R^2 value of 0.9495.

[4] = systemic relaxin vs wounds not receiving systemic relaxin
[5] = systemic relaxin, six weeks, blinded assessments

Substance: relaxin: Recombinant relaxin identical to the native human hormone H2 relaxin, produced using a recombinant single chain process
- adverse effects and tolerability over dose range [1]: no relevant adverse effects; also recorded: well-tolerated
- blood vessels / redness in the wound site ([2]; after about six weeks of treatment): overall reduction in blood vessels; also recorded: significantly less redness
- wound appearance compared to control pig ([2]; after day six, systemic relaxin): healed faster, better
- visual wound assessment: share of times a relaxin treatment group was selected in the top three ([2]; blinded neutral observers ranking the best three of six groups of wound pictures): 89%
- cosmetic ranking of wound/scar areas, irrigation vs topical only ([2]; dermatologist cosmetic score, weeks 4 and 6, irrigation relaxin treatment vs only topical relaxin treatment): ranked higher overall
- adverse effects associated with relaxin treatment (histopathology) ([2]; pig, in vivo): no adverse effects
- necrosis or inflammation associated with relaxin treatment ([2]; pig, in vivo): no necrosis or inflammation
- scar visibility at wound site ([2]; six weeks of treatment, systemic relaxin vs placebo): the scar is invisible; also recorded: no scar was visible
- scarring on histopathological slide ([2]; six weeks, relaxin treatment vs no relaxin treatment (severe scarring)): mild scarring
- collagen organization (objective collagen scoring system, redness ratio) [2, 4]: significantly better collagen organization
- composite wound healing score (three point scale, collagen appearance) [2, 4]: significantly improved
- chronic inflammation in wound sites (histology score) [2, 5]: significantly reduced
- granulation tissue in wound sites (histology score) [2, 5]: significantly reduced
- wound healing, systemic vs topical administration ([2]; systemic treatment compared to topical administration): better wound healing
- wound healing compared to placebo ([2]; topical-only treatment (low and high dose, sections 5 and 6 vs section 4), six weeks): improved wound healing
- VEGF and bFGF transcripts at wounded sites (wounded sites): upregulation
- new blood vessel formation at wounded sites (wounded sites): increased new blood vessel formation
- RLX detection in gingiva away from the site of injection ([3]; 0.5 cm from site of injection): detected
- RLX detection in gingiva away from the site of injection ([3]; 1 cm from site of injection): not detected
- RLX detection in gingiva away from the site of injection ([3]; 2 cm from site of injection): not detected
- RLX detection in gingiva ([3]; remaining time points (2 and 4 hrs)): only detected at the site of injection
- concentration of H2 RLX detected in treated dog gingiva ([3]; 1 hr after gingival injection (25 μg H2 RLX/100 μl)): 0.09 µM
- concentration of H2 RLX detected in treated dog gingiva ([3]; 2 hrs after gingival injection): 0.078 µM
- concentration of H2 RLX detected in treated dog gingiva ([3]; 4 hrs after gingival injection): 0.021 µM
